{"source": "patent US9649382B2", "about": "“Topical bioadhesive formulations” (CAMURUS AB, priority 2005, dated 2017)", "key": {"[1]": {"assay": "SAXD nanostructure of lipid compositions hydrated with PBS", "type": "physicochemical", "conditions": "for API concentration at which the cubic structure is completely lost / API concentration at which transformation into L2 solution begins / API concentration at which the cubic Fd3m structure is not significantly altered: SPC/GDO 35/65, lipid/EtOH/PG 85/10/5, PBS", "protocol": "Aqueous phase behavior was studied by hydrating non-aqueous lipid formulations with phosphate buffered saline (0.01 M phosphate buffer with 0.137 M NaCl and 0.002 M KCl, pH 7.4) at various weight ratios: 2:1, 1:1, 1:2 and 1:9. After brief vortexing, samples were left to equilibrate at room temperature for 1 week before X-ray diffraction measurements.\nThe nanostructure of hydrated lipid samples was studied using synchrotron small angle X-ray diffraction (SAXD). Measurements were performed at the 1911 beam-line at MAX-lab (Lund University, Sweden), using a Pilatus 1M 165 mm CCD detector with a resolution of 981×1043 pixels at a pixel size of 0.172 mm. The lipid samples were mounted between kapton windows in a steel sample holder at a sample-to-detector distance of 1312 mm. Diffractograms were recorded at the X-ray wavelength of 0.91 Å and a beam size of 0.25×0.25 mm (full width at the half maximum) at the sample. Temperature control within 0.1° C. was achieved using computer controlled Julabo heating circulator F12-MC (Julabo Labortechnik GMBH, Seelbach, Germany). When temperature effects were studied, the experiments were performed successively at 25° C., 37° C. and 42° C. with a 3-min exposure time at each temperature and a wait of 10 minutes between temperature steps. The resulting CCD images were integrated and analysed using the Fit2D software provided by Dr. A. Hammersley (http://www.esrf.fr/computing/scientific/FIT2D). Silver behanate calibrated sample-to-detector distance and detector positions were used."}, "[2]": {"assay": "Surface gel formation of chlorhexidine depots in situ", "type": "physicochemical", "conditions": "applied as a liquid, bioadhesive gel in situ", "source_text": "For topical bioadhesive, controlled release products for intraoral (including buccal & periodontal) administration; • i. benzydamine (local analgesic, anti inflammatory) or other local analgesic, analgesic, anti inflammatory, anti bacterial, anti fungal or combination thereof. Composition provides sustained effect at intraoral mucosa, in particular damaged, sensitised, infected mucosa e.g. in patients suffering from oral mucositis (induced by e.g. chemo- and radiotherapy). In particular for treatment of oral mucositis. • ii. tramadol (analgesic). […] Particularly for long acting effect in periodontal pocket."}, "[3]": {"assay": "Depot injected into rat periodontal pocket", "type": "in vivo", "conditions": "PC/GDO/EtOH/Gardol (34/51/10/5) injected into rat periodontal pocket", "protocol": "In order to treat periodontitis or perimplantitis an antibacterial formulation is injected in the periodontal pocket, and a prolonged effect of the formulation is normally desired. […] The injected composition is observed to transform from the low viscous formulation, and which initially spreads out to fill voids, to form a solid mass by uptake of gingival fluids. An antibacterial depot system is thus provided.\nThis formulation is injected into the rat periodontal pocket.\nGardol is observed to remain at clinically effective levels in the GCF of the periodontal pockets for a prolonged period (several days)."}, "[4]": {"conditions": "stated as clinically effective level; cited from earlier work"}}, "note": "Counter-ions that a name gives are not always drawn."}
{"molecule": "CN1C2CCCC1CC(NC(=O)c1nn(C)c3ccccc13)C2", "note": "(stereo not shown) [GRN, Granisetron hydrochloride]", "values": [{"measurement": "API concentration at which the cubic structure is completely lost", "setting": "[1]", "result": "about 1.5 wt %"}, {"measurement": "API concentration at which transformation into L2 solution begins", "setting": "[1]", "result": 0.8, "unit": "wt %"}]}
{"molecule": "N=C(NCCCCCCNC(=N)NC(=N)Nc1ccc(Cl)cc1)NC(=N)Nc1ccc(Cl)cc1.O=C(O)[C@H](O)[C@@H](O)[C@H](O)[C@H](O)CO.O=C(O)[C@H](O)[C@@H](O)[C@H](O)[C@H](O)CO", "note": "[chlorhexidine gluconate]", "values": [{"measurement": "Surface gel formation time", "setting": "[2]", "result": "between 1 second and 5 min"}]}
{"molecule": "CCCCCCCCCCCC(=O)N(C)CC(=O)[O-].[Na+]", "note": "[Gardol, Glycine, N-methyl-N-(1-oxododecyl)-, sodium salt]", "values": [{"measurement": "time Gardol remains at clinically effective levels in the GCF of the periodontal pockets", "setting": "[3]", "result": "several days"}]}
{"molecule": "CCN(CC)CC(=O)Nc1c(C)cccc1C", "note": "[LID, Lidocaine]", "values": [{"measurement": "API concentration at which the cubic Fd3m structure is not significantly altered", "setting": "[1]", "result": "≤ 1.7", "unit": "wt %"}, {"measurement": "API concentration at which the cubic structure is completely lost", "setting": "[1]", "result": "lower than 3 wt %"}, {"measurement": "API concentration at which transformation into L2 solution begins", "setting": "[1]", "result": 2, "unit": "wt %"}]}
{"molecule": "CC1(C)O[C@@H]2C[C@H]3[C@@H]4CCC5=CC(=O)C=C[C@]5(C)[C@@]4(F)[C@@H](O)C[C@]3(C)[C@]2(C(=O)CO)O1", "note": "[TCA, triamcinolone acetonide]", "values": [{"measurement": "effect on formation and lattice dimensions of the cubic structure", "setting": "[1]; SPC/GDO 35/65, lipid/EtOH/PG 85/10/5", "result": "very little effect"}, {"measurement": "API concentration at which the cubic Fd3m structure is not significantly altered", "setting": "[1]", "result": "≥ 5", "unit": "wt %"}]}
{"molecule": "chlorhexidine", "values": [{"measurement": "MIC", "setting": "[4]", "result": 125, "unit": "µg/mL"}]}
{"molecule": "CN(C)CCCOc1nn(Cc2ccccc2)c2ccccc12", "note": "[BZD, benzydamine]", "values": [{"measurement": "phase formed at lipid formulation to PBS weight ratio of 1:1", "setting": "[1]; 3 wt % BZD, SPC/GDO 35/65", "result": "cubic Fd3m LC phase is formed"}, {"measurement": "effect on Fd3m LC phase at SPC/GDO weight ratio of 30/70", "setting": "[1]; 3 wt % of BZD, 25° C.", "result": "transforms into L2 solution"}, {"measurement": "API concentration at which the cubic Fd3m structure is not significantly altered", "setting": "[1]", "result": "up to 3.5 wt %"}]}
